Source: patent US10722505B2, “Substituted 2,4 diamino-quinoline as new anticancer agents” (GENOSCIENCE PHARMA, priority 2014, dated 2020)
Structures can show the parent of a compound that is named as a salt.

Assays:
[1] = tested on: LI1005 HCC patient derived cells; experiment: CellTiter-Glo growth inhibition, HCC patient-derived cells LI1005; type: cell-based, human; conditions: LI1005, 72 hours
Protocol: (§1) The patient derived Hepatocellular Carcinoma (HCC) cells were maintained in medium respectively described in table 15 containing 1% penicillin-streptomycin (Life Technologies, 15070-063), with a supplements for primary cell culture (PCS) containing hydrocortisone (50 nM), Epidermal Growth Factor (20 ng/ml), β-fibroblast Growth Factor (10 ng/ml), Heparin (2 μg/ml) ITS liquid media supplement (1×) and non-essential amino acid (NEAA, 0.01 mM, 1×). The primary cell were cultured in a humidified atmosphere (95% relative humidity) with 5% CO2 at 37° C.
(§2) The cell growth inhibition assay was performed as described previously in example 5 using the CellTiter-Glo® luminescent cell viability assay as described by the manufacturer (Promega, Ref G7571). The number of cells seeded per well (in 96-Well Flat Clear Bottom Black Polystyrene TC-Treated Microplates, Cat #3340, Corning®) is described in the table 16. A backseal black sticker (Cat #6005189, Perkin Elmer) was placed to the bottom of each plate before recording CellTiter-Glo® luminescence.
(§3) The experimental data are analyzed using a computer program, Graphpad Prism V 5.0 (GraphPad Software, Inc. La Jolla, Calif.) and EC50 values were determined as the dose of compound required to reduce absorbance values to 50% of the signal obtained for vehicle treated cell cultures and were a mean of at least three independent experiments.

[2] = tested on: LI1098 HCC patient derived cells; experiment: CellTiter-Glo growth inhibition, HCC patient-derived cells LI1098; type: cell-based, human; conditions: LI1098, 72 hours
Protocol: as §1, §2, §3

[3] = tested on: LI1646 HCC patient derived cells; experiment: CellTiter-Glo growth inhibition, HCC patient-derived cells LI1646; type: cell-based, human; conditions: LI1646, 72 hours
Protocol: as §1, §2, §3

[4] = tested on: LI0801 HCC patient derived cells; experiment: CellTiter-Glo growth inhibition, HCC patient-derived cells LI0801; type: cell-based, human; conditions: LI0801, 72 hours
Protocol: as §1, §2, §3

[5] = tested on: LI0612 HCC patient derived cells; experiment: CellTiter-Glo growth inhibition, HCC patient-derived cells LI0612; type: cell-based, human; conditions: LI0612, 72 hours
Protocol: as §1, §2, §3

[6] = tested on: LI0050 HCC patient derived cells; experiment: CellTiter-Glo growth inhibition, HCC patient-derived cells LI0050; type: cell-based, human; conditions: LI0050, 72 hours
Protocol: as §1, §2, §3

[7] = tested on: LI0574 HCC patient derived cells; experiment: CellTiter-Glo growth inhibition, HCC patient-derived cells LI0574; type: cell-based, human; conditions: LI0574, 72 hours
Protocol: as §1, §2, §3

[8] = tested on: LI0752 HCC patient derived cells; experiment: CellTiter-Glo growth inhibition, HCC patient-derived cells LI0752; type: cell-based, human; conditions: LI0752, 72 hours
Protocol: as §1, §2, §3

MOLM-14 cell line [9] = experiment: CellTiter-Glo cell viability / growth inhibition assay, MOLM-14 (Example 5); type: cell-based; conditions: Homo sapiens, 72 h; for viability at 4 µM / viability at 10 µM: MOLM-14
Protocol: (§4) All cell lines were maintained in medium containing 1% penicillin-streptomycin (Dutscher, P06-07100) and 10% Fetal Bovine Serum (Gibco, W3387L) except 20% for KG-1 cell line and PBMC, and cultured at 37° C. with 5% CO2.
MOLM-14 cell line was maintained in MEM alpha medium (Gibco, 22561-021).
(§5) Cell viability was measured using the CellTiter-Glo® luminescent cell viability assay as described by the manufacturer (Promega, Ref G7571) using an Infinite F200Pro luminometer (Tecan). Briefly, for adherent cells, cells were plated onto 96-well plates (white with clear bottom) in 90 μL of media per well and were allowed to grow overnight before the assay. For cells growing in suspension, cells were plated onto 96-well plates immediately before the assay.
(§6) Compounds were added at different concentrations to each well, and cell cultures were incubated for 72 h. Vehicle (H2O) was used as a control, and all compounds were tested in a constant percentage of H2O. After addition of 100 μL of CellTiter-Glo®, luminescence was measured using an Infinite F200Pro (Tecan). EC50 values were determined as the dose of compound required to reduce luminescent values to 50% of the signal obtained for untreated cell cultures. The experimental data were analyzed using a computer program, Graphpad Prism v5 (GraphPad Software, Inc. La Jolla, Calif.).
All experiments were at least done in duplicate and repeated two independent times.

HepG2 cell line = experiment: CellTiter-Glo growth inhibition assay, HepG2; type: cell-based; conditions: Homo sapiens; HepG2, hepatocellular carcinoma, 72 h
Protocol: as §4
(§7) HepG2, Huh7, HCT-116, MDA-MB-231 and A375 cell lines were cultured in Dulbecco's modified Eagle's medium (Dutscher, L0103).
as §5
as §6, with “Calif.). […]” for “Calif.).”

A375 cell line = experiment: CellTiter-Glo growth inhibition assay, A375; type: cell-based; conditions: Homo sapiens, A-375; A375, malignant melanoma, 72 h
Protocol: as §4, §7, §5
as §6, with “Calif.). […]” for “Calif.).”

HCT-116 cell line = experiment: CellTiter-Glo growth inhibition assay, HCT-116; type: cell-based; conditions: Homo sapiens; HCT-116, colorectal carcinoma, 72 h
Protocol: as §4, §7, §5
as §6, with “Calif.). […]” for “Calif.).”

[10] = tested on: ALDH+ (CSC) population of MOLM-14 cell line; experiment: Aldefluor kit assay, ALDH+ compartment in MOLM-14; type: cell-based, human; conditions: 72 h, control = 100
Excerpt: Analysis of the of aldehyde dehydrogenase (ALDH) compartment and high activity level of aldehyde dehydrogenase activity (ALDH+) was used to detect tumor initiating cells (cancer stem cells, CSC) population. The Aldefluor™ kit assay (StemCell Technologies, 01700) allowed to assess the activity of drugs on CSC cells like in a MOLM-14 acute myeloid leukemia cell line population (ref: Storms, R. W., Trujillo, A. P., Springer, J. B., Shah, L., Colvin, O. M., Ludeman, S. M., & Smith, C. (1999). Isolation of primitive human hematopoietic progenitors on the basis of aldehyde dehydrogenase activity. Proceedings of the National Academy of Sciences, 96(16), 9118-9123). The Aldefluor™ kit assay was used according to the procedure described by the manufacturer. Briefly, MOLM-14 cell line was cultured in MEM alpha medium supplemented with 10% v/v Fetal Bovine Serum, 1% Penicillin-Streptomycin and maintained at 37° C. with 5% CO2. 5·10^5 cells were used in this assay. Each compound was added at different concentrations (see table 8), and cell cultures were incubated for 72 h. Vehicle (H2O) was used as a control, and all compounds were tested in a constant percentage of vehicle. Cells obtained from cell culture were incubated for 45 minutes at 37° C. with Aldefluor™ buffer assay containing the Bodipy™-aminoacetaldehyde, a fluorescent ALDH aldehyde substrate. ALDH converts the fluorescent substrate BAAA to the Bodipy™-aminoacetic acid (BAA) which is retained in the cell. An active efflux inhibitor is present in the Adelfluor™ assay buffer in order to avoid the active efflux from the cell of the substrate product ALDH dependent converted BAA. The fluorescent signal is directly proportional to the ALDH activity in the cells and is measured by flow cytometry. A negative control is used to measure the background fluorescence level. For such purpose, 4-(N,N-diethylamino)-benzaldehyde (DEAB) was used as selective ALDH inhibitor. A viability cell count was performed using LIVE/DEAD® Fixable Far Red Dead Cell Stain Kit (Invitrogen). The experimental data are analyzed using a computer program, Graphpad Prism v5 (GraphPad Software, Inc. La Jolla, Calif.) and EC50 values were determined as the dose of compound required to reduce absorbance values to 50% of the signal obtained for vehicle treated cell cultures.

MOLM-14 cell line [11] = experiment: CellTiter-Glo growth inhibition assay, MOLM-14 (Example 6); type: cell-based, human; conditions: MOLM-14, 72 h, method of Example 6
Protocol: MOLM-14 cell line was cultured in MEM alpha medium supplemented with 10% v/v Fetal Bovine Serum, 1% Penicillin-Streptomycin and maintained at 37° C. with 5% CO2. 10,000 cells were plated onto 96-well plates immediately before the assay.
Each compound was added at different concentrations (combinations of six concentrations) to each well, and cell cultures were incubated for 72 h. Vehicle (H2O) was used as a control, and all compounds were tested in a constant percentage of vehicle. Cell outgrowth was measured using the CellTiter-Glo® luminescent cell viability assay as described by the manufacturer (Promega, Ref G7571 Madison, Wis., USA) using a Centro (Berthold, France) plate reader.
In each experiment, each point represents the average of triplicates in cell culture.
The experimental data are analyzed using a computer program, Graphpad Prism v5 (GraphPad Software, Inc. La Jolla, Calif.) and EC50 values were determined as the dose of compound required to reduce absorbance values to 50% of the signal obtained for vehicle treated cell cultures.

BEL-7402 cells line = experiment: CellTiter-Glo growth inhibition assay, BEL-7402 (internal control); type: cell-based; conditions: Homo sapiens, 72 h
Protocol: When performing the assay, dose response test of Doxorubicin on BEL-7402 cells line (human primary hepatocellular carcinoma) will be used as internal control in each assay plate for the assay. The MEM medium supplemented with 5% H2O (5×) will be added into the cells as a negative controls. The final H2O concentration was 1% in each well.
Cells in log-phase are collected and counted. Cell suspensions are added to each well of 384-well plate at 800 cells per well (total volume 40 μl). The margin wells are filled with PBS buffer. Test compound at various concentrations are added in duplicates (add 10 μl 5× compound solutions to the plate). The assay plate is incubated for 72 h in 37° C./5% CO2 incubator. Cell viability was measured using the CellTiter-Glo® luminescent cell viability assay as described by the manufacturer (Promega, Ref G7571). After addition of 100 μL of CellTiter-Glo® reactifs solution, luminescence was measured using a PHERAstar Plus luminometer. Data were recorded by PHERAstar Plus, Data acquisition and analysis were performed using Microsoft Excel program and GraphPad Prism v.6 software.

786-O cell line = experiment: CellTiter-Glo growth inhibition assay, 786-O; type: cell-based; conditions: Homo sapiens, 786-0, 72 h
Protocol: (§8) CAKI-1 and 786-0 cell lines were maintained in RPMI 1640 medium (Dutscher, L0498) containing 1% penicillin-streptomycin (Dutscher, P06-07100) and 10% Fetal Bovine Serum (Gibco, W3387L) and cultured at 37° C. with 5% CO2.
as §5, with “Briefly,” for “Briefly, for adherent cells,”, “assay.” for “assay. For cells growing in suspension, cells were plated onto 96-well plates immediately before the assay.”
(§9) Compounds 2-3 and two reference compounds (Sorafenib and Sunitinib) were added at different concentrations to each well, and cell cultures were incubated for 72 h. For compound 2-3 analysis, H2O was used as a negative control (=untreated) and all concentrations were tested in a constant percentage of H2O. For Sorafenib and Sunitinib analysis, DMSO was used as a negative control (=untreated) and all concentrations were tested in a constant percentage of DMSO. 72 h after incubation of compounds, 100 μL of CellTiter-Glo® were added to each well and luminescence was measured using an Infinite F200Pro (Tecan). EC50 values were determined as the dose of compound required to reduce luminescent values to 50% of the signal obtained for untreated cell cultures. The experimental data were analyzed using a computer program, Graphpad Prism v5 (GraphPad Software, Inc. La Jolla, Calif.). All experiments were at least done in triplicate and repeated at least three independent times.

CAKI-1 cell line = experiment: CellTiter-Glo growth inhibition assay, CAKI-1; type: cell-based; conditions: Homo sapiens, CAKI-1, 72 h
Protocol: as §8
as §5, with “Briefly,” for “Briefly, for adherent cells,”, “assay.” for “assay. For cells growing in suspension, cells were plated onto 96-well plates immediately before the assay.”
as §9

## N.N.[Cl][Pt][Cl] [Cisplatin]
[1]
  EC50: 5.9 µM
[2]
  EC50: 5.1 µM
[3]
  EC50: 10 µM
[4]
  EC50: 1.5 µM
[5]
  EC50: 16.3 µM
[6]
  EC50: 1.3 µM
[7]
  EC50: 3.6 µM
[8]
  EC50: 2.6 µM

## CC(C)(C)NC1CCN(c2cc(Nc3ccc(Cl)cc3)nc3ccccc23)CC1 [Compound 1-6, 2-(4-chlorophenylamino)-4-(4-tert-butylaminopiperidin-1-yl)-quinoline hydrochloride salt]
MOLM-14 cell line [9]
  viability at 4 µM: 71.8%
  viability at 10 µM: 12.1%

## Cc1cc(Nc2cc(N3CCC(NC(C)(C)C)CC3)c3ccccc3n2)ccc1Nc1ncccn1 [Compound 3-5, 2-[3-methyl-4-(pyrimidin-2-ylamino)phenylamino]-4-(4-tert-butylaminopiperidin-1-yl)-quinoline hydrochloride salt]
MOLM-14 cell line [9]
  viability at 4 µM: 78.7%
  viability at 10 µM: 8.7%

## Cc1cc(Nc2cc(N3CCC(NC(C)(C)C)CC3)c3ccccc3n2)ccc1Nc1nccc(-c2cccnc2)n1 [Compound 4-3, 2-{4-[4-(pyridin-3-yl)-2-pyrimidinamino]-3-methyl-phenylamino}-4-(4-tert-butylaminopiperidin-1-yl)-quinoline hydrochloride salt]
HepG2 cell line
  EC50: 6.3 µM
A375 cell line
  EC50: 1.4 µM
MOLM-14 cell line [9]
  viability at 4 µM: 0.5%
  viability at 10 µM: 0.2%
MOLM-14 cell line [9]; MOLM-14, acute myeloïd leukemia, FLT3-ITD heterozygote+/−
  EC50: 2.3 µM
HCT-116 cell line
  EC50: 1.8 µM

## Nc1ccn([C@@H]2O[C@H](CO)[C@@H](O)[C@@H]2O)c(=O)n1 [Cytarabin, reference compound]
[10]; MOLM-14, 1 μM
  ALdefluor positive CSCs (%): 130%
[10]; MOLM-14, 3 μM
  ALdefluor positive CSCs (%): 116%
MOLM-14 cell line [11]
  EC50: 0.29 µM

## COc1cccc2c1C(=O)c1c(O)c3c(c(O)c1C2=O)C[C@@](O)(C(=O)CO)C[C@@H]3O[C@H]1C[C@H](N)[C@H](O)[C@H](C)O1 [Doxorubicin]
BEL-7402 cells line
  EC50: 0.15 µM

## CNC(=O)c1cc(Oc2ccc(NC(=O)Nc3ccc(Cl)c(C(F)(F)F)c3)cc2)ccn1 [Sorafenib]
[1]; Homo sapiens
  EC50: 14.5 µM
[2]; Homo sapiens
  EC50: 10.9 µM
786-O cell line
  EC50: 6.8 µM
[3]; Homo sapiens
  EC50: 10.3 µM
[4]; Homo sapiens
  EC50: 5.7 µM
[5]; Homo sapiens
  EC50: 17.9 µM
CAKI-1 cell line
  EC50: 4.5 µM
[6]; Homo sapiens
  EC50: 9.1 µM
[7]; Homo sapiens
  EC50: 8.7 µM
[8]; Homo sapiens
  EC50: 6.3 µM

## CCN(CC)CCNC(=O)c1c(C)[nH]c(/C=C2\C(=O)Nc3ccc(F)cc32)c1C [Sunitinib]
786-O cell line
  EC50: 6 µM
CAKI-1 cell line
  EC50: 1.7 µM
